What was measured:
DGKζ = DGKζ (Homo sapiens (Human), UniProt Q13574); test: Biochemical DGK IC50 assay, DGKζ ADP-Glo assay; conditions: 0.5 nM enzyme, 140 μM ATP, 80 μM DAG; read-out: DGKζ ADP-Glo assay IC50
Description: (§1) Enzymatic reactions of DGKζ, DGKα and DGKδ were performed using ADP-Glo assay with lipid micelle substrate. […] Full length DGKα (D21-10BG, SignalChem) and full length DGKδ (D23-10G, SignalChem) were purchased. Lipid micelle was prepared by dissolving DAG (Sigma, 317505-10MG) and PS (Sigma, P7769-100MG) with chloroform which was furtherly removed by rotary evaporation. The resulted product was resuspended in buffer containing 25 mM HEPES pH 7.0, 0.5 mM EDTA and 160 mM Octyl β-D glucopyranoside by vigorous mixing and ultrasonic (IID, Scientz).
(§2) The ranges of compounds final concentration were 1.55˜10000 nM or 23.3˜150000 nM. 3 μL 2× enzyme solution was added to wells.
Human His-TEV-DGK-zeta-pFastBac1 and human baculovirus samples was generated using the Bac-to-Bac baculovirus expression system (Invitrogen) according to the manufacturer's protocol. The DNA used for expression of DGK-zeta, have SEQ ID Nos: 1. Baculovirus amplification was achieved using infected SF9 cells at 1:2000 virus/cells ratios, and grown for 96 hours at 27° C. post-transfected.
The expression scaled up for each protein was carried out in the […] from CORNING. 4 L of 3×10^6 cells/mL Sf9 cells (Expression System, Invitrogen) grown in SF900™ II SFM insect medium (Expression System) was infected with virus stock at 1:200 virus/cells ratio, and grown for 48 hours at 27° C. post-transfection. The infected cell culture was harvested by centrifugation at 6000 rpm for 15 min 4° C. in a SORVALL LYNX6000 centrifuge. The cell pellets were stored at −80° C.
Full length human DGKζ produced as described above, was purified from Sf9 baculovirus-infected insect cell paste. The cells were lysed using sonication method, and the lysates were clarified by centrifugation.

DGKα = DGKα (Homo sapiens (Human), UniProt P23743); test: Biochemical DGK IC50 assay, DGKα ADP-Glo assay; conditions: 7.5 nM enzyme, 140 μM ATP, 80 μM DAG
Chain of DGKα (P23743 whole entry): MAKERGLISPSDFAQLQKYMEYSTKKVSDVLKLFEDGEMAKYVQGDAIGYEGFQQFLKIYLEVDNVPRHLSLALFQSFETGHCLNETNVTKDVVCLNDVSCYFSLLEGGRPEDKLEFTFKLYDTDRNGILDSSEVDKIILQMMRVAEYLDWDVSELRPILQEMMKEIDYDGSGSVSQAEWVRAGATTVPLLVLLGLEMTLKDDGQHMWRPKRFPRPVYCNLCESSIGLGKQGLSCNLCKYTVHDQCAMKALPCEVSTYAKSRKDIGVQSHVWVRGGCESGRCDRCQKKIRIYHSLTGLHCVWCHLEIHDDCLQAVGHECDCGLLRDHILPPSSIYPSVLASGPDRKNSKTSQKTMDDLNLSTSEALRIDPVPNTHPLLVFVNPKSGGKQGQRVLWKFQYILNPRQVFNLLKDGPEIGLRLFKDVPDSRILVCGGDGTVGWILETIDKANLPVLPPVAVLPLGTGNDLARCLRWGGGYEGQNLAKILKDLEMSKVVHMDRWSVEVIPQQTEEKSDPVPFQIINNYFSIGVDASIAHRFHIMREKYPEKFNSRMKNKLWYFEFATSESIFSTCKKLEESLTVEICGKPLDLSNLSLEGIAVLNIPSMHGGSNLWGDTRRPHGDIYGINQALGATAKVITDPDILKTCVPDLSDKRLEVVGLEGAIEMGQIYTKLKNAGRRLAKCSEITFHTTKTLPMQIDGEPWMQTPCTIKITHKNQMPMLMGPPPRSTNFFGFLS
Description: as §1, §2

Chain of DGKζ (Q13574 other isoform, or with tags, fused parts or gaps): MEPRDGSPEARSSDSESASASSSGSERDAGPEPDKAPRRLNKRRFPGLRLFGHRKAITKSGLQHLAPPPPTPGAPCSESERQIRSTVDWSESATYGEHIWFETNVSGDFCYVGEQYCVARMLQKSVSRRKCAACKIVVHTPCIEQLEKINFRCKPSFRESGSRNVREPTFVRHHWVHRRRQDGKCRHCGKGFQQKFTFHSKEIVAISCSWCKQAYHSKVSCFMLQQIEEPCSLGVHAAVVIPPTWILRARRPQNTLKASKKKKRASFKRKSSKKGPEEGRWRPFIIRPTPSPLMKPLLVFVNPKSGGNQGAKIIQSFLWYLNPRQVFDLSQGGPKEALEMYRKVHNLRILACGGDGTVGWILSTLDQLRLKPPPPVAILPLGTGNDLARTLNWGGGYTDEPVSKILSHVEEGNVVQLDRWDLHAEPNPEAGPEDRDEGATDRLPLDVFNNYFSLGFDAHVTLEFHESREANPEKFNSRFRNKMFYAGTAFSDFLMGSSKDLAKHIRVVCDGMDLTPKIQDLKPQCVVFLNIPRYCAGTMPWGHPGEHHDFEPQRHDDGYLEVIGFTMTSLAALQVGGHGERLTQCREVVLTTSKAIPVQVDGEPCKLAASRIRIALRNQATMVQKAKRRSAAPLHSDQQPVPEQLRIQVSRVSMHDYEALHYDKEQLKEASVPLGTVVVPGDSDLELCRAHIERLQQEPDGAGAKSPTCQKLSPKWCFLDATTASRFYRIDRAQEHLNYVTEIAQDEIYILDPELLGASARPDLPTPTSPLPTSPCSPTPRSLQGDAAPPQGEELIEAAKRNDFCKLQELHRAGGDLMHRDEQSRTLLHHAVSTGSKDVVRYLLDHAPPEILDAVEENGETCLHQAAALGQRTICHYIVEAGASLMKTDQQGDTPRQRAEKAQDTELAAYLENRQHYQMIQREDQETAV

Row | IC50 (DGKζ) | IC50 (DGKα) | Compound
1 | 2100 nM | 42000 nM | CC[C@H]1CN(C(C)c2ccc(F)cc2OC)[C@H](CC)CN1c1cc(=O)n(C)c2cn(CC#N)nc12 (single isomer, unassigned) [Compound A71a]
2 | 411 nM | > 10000 nM | CC(c1c(Cl)cc(F)cc1Cl)N1C[C@H](C)N(c2cc(=O)n(C)c3cn(CC#N)nc23)C[C@H]1C (some centres unmarked) [Compound A272]
3 | 3700 nM | 5700 nM | CC(c1ccc2nccnc2c1)N1C[C@H](C)N(c2cc(=O)n(C)c3cn(C(C)C)nc23)C[C@H]1C (some centres unmarked) [Compound A18]
4 | 300 nM | 33 nM | CC[C@H]1CN(C(C)c2ncc(OC(F)(F)F)cc2F)[C@H](CC)CN1c1cc(=O)n(C)c2cn(CC#N)nc12 (single isomer, unassigned) [Compound A362b]
5 | > 10000 nM | 2260 nM | CC[C@H]1CN(C(C)c2ccc(C(N)=O)cc2)[C@H](CC)CN1c1cc(=O)n(C)c2cn(CC#N)nc12 (single isomer, unassigned) [Compound A120b]
6 | > 10000 nM | 6480 nM | CC(c1ccc2nc(O)cnc2c1)N1C[C@H](C)N(c2cc(=O)n(C)c3cn(CC#N)nc23)C[C@H]1C (stereo partly drawn) [Compound A284, 2-(7-((2S,5R)-4-(1-(2-hydroxyquinoxalin-6-yl)ethyl)-2,5-dimethylpiperazin-1-yl)-4-methyl-5-oxo-4,5-dihydro-2H-pyrazolo[4,3-b]pyridin-2-yl)acetonitrile]
7 | > 10000 nM | 8180 nM | C[C@@H]1CN(c2cc(=O)n(C)c3cn(CC#N)nc23)[C@@H](C)CN1C(C)(C)c1ccc(F)cc1 [Compound A297, 2-(7-((2S,5R)-4-(2-(4-fluorophenyl)propan-2-yl)-2,5-dimethylpiperazin-1-yl)-4-methyl-5-oxo-4,5-dihydro-2H-pyrazolo[4,3-b]pyridin-2-yl)acetonitrile]
8 | 1130 nM | > 10000 nM | CC[C@H]1CN(C(C)c2cc(Cl)nn2CC)[C@H](CC)CN1c1cc(=O)n(C)c2cn(CC#N)nc12 (some centres unmarked) [Compound A212]
9 | > 10000 nM | > 10000 nM | CC[C@H]1CN([C@H](C)c2ccc3nccnc3c2)[C@H](CC)CN1c1cc(=O)n(CC(F)(F)F)c2cn(CC#N)nc12 [Compound A124]
10 | 211 nM | 114 nM | CC[C@H]1CN(C(C)c2c(F)cncc2F)[C@H](CC)CN1c1cc(=O)n(C)c2cn(CC#N)nc12 (some centres unmarked) [Compound A87]
11 | 1740 nM | 6030 nM | CC[C@H]1CN(C(C)c2ccc3nccnc3c2)[C@H](CC)CN1c1cc(=O)n(CC(F)(F)F)c2cn(CC#N)nc12 (stereo partly drawn) [Compound A123, 2-(7-((2S,5R)-2,5-diethyl-4-(1-(quinoxalin-6-yl)ethyl)piperazin-1-yl)-5-oxo-4-(2,2,2-trifluoroethyl)-4,5-dihydro-2H-pyrazolo[4,3-b]pyridin-2-yl)acetonitrile]
12 | 234 nM | 2760 nM | CC[C@H]1CN(C(C)c2cc(C(F)(F)F)nn2CC)[C@H](CC)CN1c1cc(=O)n(C)c2cn(CC#N)nc12 (some centres unmarked) [Compound A211]
13 | 230 nM | 1200 nM | COc1cc(F)c(C(C)N2C[C@H](C)N(c3cc(=O)n(C)c4cn(CC#N)nc34)C[C@H]2C)c(F)c1 (some centres unmarked) [Compound A32]
14 | 1220 nM | 6580 nM | CC[C@H]1CN(C(C)c2ccc(F)cc2OC(C)C)[C@H](CC)CN1c1cc(=O)n(C)c2cn(CC#N)nc12 (some centres unmarked) [Compound A142]
15 | 8290 nM | 116000 nM | [2H]C([2H])([2H])c1cnc2ccc(C(C)N3C[C@H](C)N(c4cc(=O)n(C)c5cn(CC#N)nc45)C[C@H]3C)cc2n1 (single isomer, unassigned) [Compound A313a]
16 | 4800 nM | 173 nM | CC[C@H]1CN(C(C)c2ccc(C(F)F)cn2)[C@H](CC)CN1c1cc(=O)n(C)c2cn(CC#N)nc12 (single isomer, unassigned) [Compound A347a]
17 | 452 nM | 5250 nM | CC[C@@H]1CN(c2cc(=O)n(C)c3cn(CC(F)F)nc23)[C@@H](C)CN1C(C)c1ccc2nccnc2c1 (single isomer, unassigned) [Compound A222a]
18 | 640 nM | 2410 nM | CC[C@H]1CN(C(C)c2ccc(C(F)(F)F)c(OC)c2)[C@H](CC)CN1c1cc(=O)n(C)c2cn(CC#N)nc12 (some centres unmarked) [Compound A78]
19 | 253 nM | > 10000 nM | COC[C@H]1CN(C(C)c2ccc3nccnc3c2)[C@H](C)CN1c1cc(=O)n(C)c2cn(CC#N)nc12 (stereo partly drawn) [Compound A143, 2-(7-((2R,5R)-2-(methoxymethyl)-5-methyl-4-(1-(quinoxalin-6-yl)ethyl)piperazin-1-yl)-4-methyl-5-oxo-4,5-dihydro-2H-pyrazolo[4,3-b]pyridin-2-yl)acetonitrile]

Row | IC50 (DGKζ) | IC50 (DGKα) | Compound
20 | > 10000 nM | > 10000 nM | CC[C@H]1CN(C(C)c2ccc(C)cc2C(F)(F)F)[C@H](CC)CN1c1cc(=O)n(C)c2cn(CC#N)nc12 (single isomer, unassigned) [Compound A115a]
21 | 65 nM | 8340 nM | CC[C@H]1CN(C(C)c2ccc(F)cc2OC(F)F)[C@H](CC)CN1c1cc(=O)n(C)c2cn(CC#N)nc12 (single isomer, unassigned) [Compound A171a]
22 | 1200 nM | 870 nM | COc1cc(F)c(C(C)N2C[C@H](C)N(c3cc(=O)n(C)c4cn(CC#N)nc34)C[C@H]2C)cc1F (some centres unmarked) [Compound A35]
23 | 4200 nM | 9600 nM | CC(c1ccc2nccnc2c1)N1C[C@H](C)N(c2cc(=O)n(C)c3cn(C4(C#N)CC4)nc23)C[C@H]1C (stereo partly drawn) [Compound A16, 1-(7-((2S,5R)-2,5-dimethyl-4-(1-(quinoxalin-6-yl)ethyl)piperazin-1-yl)-4-methyl-5-oxo-4,5-dihydro-2H-pyrazolo[4,3-b]pyridin-2-yl)cyclopropane-1-carbonitrile]
24 | 50 nM | 114 nM | CC[C@H]1CN(C(C)c2ccc3ccccc3n2)[C@H](CC)CN1c1cc(=O)n(C)c2cn(CC#N)nc12 (some centres unmarked) [Compound A57]
25 | 1910 nM | > 150000 nM | CC[C@H]1CN(C(C)c2ccc(F)cc2C(=O)N(C)C)[C@H](CC)CN1c1cc(=O)n(C)c2cn(CC#N)nc12 (some centres unmarked) [Compound A292]
26 | 463 nM | 983 nM | CC[C@H]1CN(C(C)c2ccc3nccnc3c2)[C@H](CC)CN1c1cc(=O)n(C)c2cn(CC#N)nc12 (single isomer, unassigned) [Compound A28b]
27 | 15 nM | 730 nM | CC[C@H]1CN(C(C)c2ccc(OC(F)F)nc2)[C@H](CC)CN1c1cc(=O)n(C)c2cn(CC#N)nc12 (single isomer, unassigned) [Compound A180a]
28 | 5800 nM | 8300 nM | CC(c1ccc2ncnn2c1)N1C[C@H](C)N(c2cc(=O)n(C)c3cn(CC#N)nc23)C[C@H]1C (some centres unmarked) [Compound A34]
29 | 1900 nM | 13 nM | CC[C@H]1CN(C(C)c2ccccn2)[C@H](CC)CN1c1cc(=O)n(C)c2cn(CC#N)nc12 (some centres unmarked) [Compound A90]
30 | 3130 nM | 996 nM | CC[C@H]1CN(C(C)c2ncc(C(F)(F)F)cc2F)[C@H](CC)CN1c1cc(=O)n(C)c2cn(CC#N)nc12 (single isomer, unassigned) [Compound A354a]
31 | 1940 nM | 22 nM | CC[C@H]1CN(C(C)c2ccncc2)[C@H](CC)CN1c1cc(=O)n(C)c2cn(CC#N)nc12 (some centres unmarked) [Compound A86]
32 | 3020 nM | 1300 nM | CC[C@H]1CN(C(C)c2cccc(CO)c2)[C@H](CC)CN1c1cc(=O)n(C)c2cn(CC#N)nc12 (single isomer, unassigned) [Compound A121a]
33 | 3860 nM | 69600 nM | Cc1nc2ccc(C(C)N3C[C@H](C)N(c4cc(=O)n(C)c5cn(CC#N)nc45)C[C@H]3C)cc2nc1C (stereo partly drawn) [Compound A294, 2-(7-((2S,5R)-4-(1-(2,3-dimethylquinoxalin-6-yl)ethyl)-2,5-dimethylpiperazin-1-yl)-4-methyl-5-oxo-4,5-dihydro-2H-pyrazolo[4,3-b]pyridin-2-yl)acetonitrile]
34 | 1780 nM | 330 nM | CC[C@H]1CN(C(C)c2ccc(F)cc2F)[C@H](CC)CN1c1cc(=O)n(C)c2cn(CC#N)nc12 (single isomer, unassigned) [Compound A132b]
35 | 4240 nM | 1580 nM | CC[C@H]1CN(C(C)c2ccc(C)nc2)[C@H](CC)CN1c1cc(=O)n(C)c2cn(CC#N)nc12 (single isomer, unassigned) [Compound A349b]
36 | 1750 nM | 2470 nM | CC(c1ccc2ccc(C#N)cc2c1)N1C[C@H](C)N(c2cc(=O)n(C)c3cn(CC#N)nc23)C[C@H]1C (some centres unmarked) [Compound A307]
37 | 1050 nM | > 10000 nM | CC[C@@H]1CN(c2c(Cl)c(=O)n(C)c3cn(CC#N)nc23)CCN1C(C)c1ccc2nccnc2c1 (single isomer, unassigned) [Compound A162b]
